Experiment [1] has as its target T1, USP7, full-length, native C-Terminus (Homo sapiens, UniProt Q93009).
T1 construct: USP7, full-length, native C-Terminus, 0.2 nM
The experiment is described as follows: Biochemical USP7 assay with Ubiquitin-Rho110 substrate, compounds pre-incubated with USP7 (USP7_Ub-Rho preInc). As to conditions: compounds pre-mixed with USP7, 1 hour incubation, before substrate; read-out: USP7 Ub-Rho preInc (IC50). As to the method: (§1) Biochemical USP7 assays using Ubiquitin-Rho110 as a substrate: The final assay conditions were as follows: The Reaction Buffer consisted of: 50 mM Tris (pH 7.5), 0.01% (v/v) Triton X-100, 2.5 mM Dithiothreitol, 0.1% (w/v) bovine gamma globulin (Sigma cat #G5009-25G); USP7, full-length, native C-Terminus, 0.2 nM; the substrate, Ubiquitin-Rho110 (Boston Biochem cat #U-555), 1 uM. Reactions were carried out for 1 hour at room temperature, in black 20 μL volume polystyrene ProxiPlate 384 F Plus® (PerkinElmer cat #6008260).
(§2) Test compounds, including a control USP7 inhibitor (Ub-aldehyde, Boston Biochem cat #U-201) were serially diluted in DMSO, in 384 well clear V-bottom polypropylene plates (Greiner cat #781280). Compounds in DMSO were diluted 10-fold into Reaction Buffer, to achieve 3-fold the final desired concentration. The substrate, Ubiquitin-Rho110 (Boston Biochem cat #U-555), was prepared at 3 μM (3-fold the final concentration) and 5 ul was dispensed into the reaction plate. 5 ul of the compounds (diluted in Reaction Buffer at 3-fold the final concentration) were transferred to the reaction plate. 5 ul of 0.6 nM USP7 (diluted in Reaction Buffer at 3-fold the final concentration) was transferred to the reaction plate to initiate the reaction. After 1 hour incubation at room temperature the reaction was quenched by the addition of 5 ul of 400 mM acetic acid. The enzymatic product was measured by quantifying the fluorescence signal of cleaved Rhodamine-110 using excitation at 485 nm and emission at 535 nm. When pre-incubation of USP7 with compounds was required, the order of addition of reagents was modified to pre-mix the compounds with USP7 (with a 1 hour incubation period), prior to the addition of the substrate and the initiation of the reaction period. Percentage inhibition values were calculated relative to a no enzyme control and a uninhibited enzyme control. Curve fitting and IC50 calculations were carried out using Genedata Screener software.

Another experiment has as its target USP7 catalytic domain (Homo sapiens, UniProt Q93009). The experiment is described as follows: Ub-Rho110 DUB assay, Table 2, USP7 catalytic domain. It is filed as biochemical. The note with it: read-out: Ub-Rho110 IC50, USP7 cat.
In a further experiment the target is T2, USP47 (Homo sapiens, UniProt Q96K76).
T2 sequence (Q96K76 1-1375): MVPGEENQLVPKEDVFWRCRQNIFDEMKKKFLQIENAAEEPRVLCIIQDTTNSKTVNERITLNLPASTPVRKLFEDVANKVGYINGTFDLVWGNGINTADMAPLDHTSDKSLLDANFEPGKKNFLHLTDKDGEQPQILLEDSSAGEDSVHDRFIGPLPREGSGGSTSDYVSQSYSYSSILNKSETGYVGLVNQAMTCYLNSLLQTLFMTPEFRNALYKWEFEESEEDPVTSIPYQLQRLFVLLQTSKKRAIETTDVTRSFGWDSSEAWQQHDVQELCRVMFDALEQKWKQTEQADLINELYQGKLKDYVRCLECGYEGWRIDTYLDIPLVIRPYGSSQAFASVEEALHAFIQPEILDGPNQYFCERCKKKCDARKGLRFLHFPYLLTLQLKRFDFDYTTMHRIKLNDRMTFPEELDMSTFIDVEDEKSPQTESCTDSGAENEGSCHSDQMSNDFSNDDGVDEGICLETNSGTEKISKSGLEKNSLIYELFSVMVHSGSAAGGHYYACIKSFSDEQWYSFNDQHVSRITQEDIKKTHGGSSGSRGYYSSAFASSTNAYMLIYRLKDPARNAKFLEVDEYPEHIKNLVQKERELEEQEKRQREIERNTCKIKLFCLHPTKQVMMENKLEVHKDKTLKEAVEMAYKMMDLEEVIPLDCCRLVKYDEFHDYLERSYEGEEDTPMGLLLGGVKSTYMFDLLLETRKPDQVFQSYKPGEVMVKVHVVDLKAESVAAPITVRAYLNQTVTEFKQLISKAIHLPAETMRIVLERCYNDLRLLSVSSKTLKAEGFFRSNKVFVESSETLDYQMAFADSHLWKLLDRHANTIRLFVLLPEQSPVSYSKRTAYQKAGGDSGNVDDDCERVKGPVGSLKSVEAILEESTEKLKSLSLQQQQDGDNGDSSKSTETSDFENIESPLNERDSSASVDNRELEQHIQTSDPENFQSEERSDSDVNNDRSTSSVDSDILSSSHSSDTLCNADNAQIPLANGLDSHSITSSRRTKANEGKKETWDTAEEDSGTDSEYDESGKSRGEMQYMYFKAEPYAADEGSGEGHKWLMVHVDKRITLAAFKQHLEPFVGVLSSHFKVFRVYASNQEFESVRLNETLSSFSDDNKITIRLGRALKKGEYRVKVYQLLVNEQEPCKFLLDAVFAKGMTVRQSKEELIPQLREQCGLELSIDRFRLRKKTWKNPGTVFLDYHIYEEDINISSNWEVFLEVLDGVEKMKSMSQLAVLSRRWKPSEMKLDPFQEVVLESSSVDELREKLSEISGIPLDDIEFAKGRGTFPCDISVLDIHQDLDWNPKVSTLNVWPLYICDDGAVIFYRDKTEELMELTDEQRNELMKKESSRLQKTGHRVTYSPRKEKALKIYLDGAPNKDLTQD
The experiment is described as follows: Ub-Rho110 DUB assay, Table 2, USP47. The format is biochemical.

The target in another experiment is T3, USP7 (Homo sapiens, UniProt Q93009).
T3 construct: USP7, full-length, native C-Terminus, 0.2 nM
T3 sequence (Q93009 whole entry): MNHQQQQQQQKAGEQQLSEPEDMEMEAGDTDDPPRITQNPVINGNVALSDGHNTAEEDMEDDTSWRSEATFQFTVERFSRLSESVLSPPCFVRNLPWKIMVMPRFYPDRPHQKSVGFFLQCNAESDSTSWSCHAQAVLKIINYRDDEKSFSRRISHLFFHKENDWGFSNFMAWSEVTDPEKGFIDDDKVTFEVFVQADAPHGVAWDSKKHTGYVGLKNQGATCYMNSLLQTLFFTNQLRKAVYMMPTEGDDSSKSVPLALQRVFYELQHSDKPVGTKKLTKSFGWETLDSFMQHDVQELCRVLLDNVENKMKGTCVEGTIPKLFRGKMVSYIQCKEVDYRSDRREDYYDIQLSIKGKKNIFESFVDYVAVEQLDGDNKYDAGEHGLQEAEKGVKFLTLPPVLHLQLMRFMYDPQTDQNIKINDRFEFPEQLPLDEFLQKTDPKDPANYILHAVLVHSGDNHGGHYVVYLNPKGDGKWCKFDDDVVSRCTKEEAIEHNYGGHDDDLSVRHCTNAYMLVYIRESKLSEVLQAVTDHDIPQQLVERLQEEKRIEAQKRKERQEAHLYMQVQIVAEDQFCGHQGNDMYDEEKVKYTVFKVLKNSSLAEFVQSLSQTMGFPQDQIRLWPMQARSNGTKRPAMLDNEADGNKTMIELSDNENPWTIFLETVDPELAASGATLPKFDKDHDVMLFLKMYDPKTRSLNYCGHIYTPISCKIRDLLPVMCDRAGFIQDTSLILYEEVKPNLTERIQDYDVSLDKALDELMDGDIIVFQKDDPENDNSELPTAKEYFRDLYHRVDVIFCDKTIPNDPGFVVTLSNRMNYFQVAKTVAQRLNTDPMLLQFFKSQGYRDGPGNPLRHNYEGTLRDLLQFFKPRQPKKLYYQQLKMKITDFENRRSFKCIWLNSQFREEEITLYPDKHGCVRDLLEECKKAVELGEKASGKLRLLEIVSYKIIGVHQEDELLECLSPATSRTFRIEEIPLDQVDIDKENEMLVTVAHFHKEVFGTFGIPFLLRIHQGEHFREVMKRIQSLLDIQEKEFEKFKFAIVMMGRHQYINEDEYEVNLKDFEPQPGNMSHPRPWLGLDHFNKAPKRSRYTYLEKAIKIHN
The experiment is described as follows: Ub-Rho110 DUB assay, Table 2, USP7. The format is biochemical. As to conditions: for selectivity of antagonism of USP7 catalytic activity over the DUBs evaluated: conclusion from Table 2 (USP7, USP7 cat, USP47, USP5).

Experiment [2] deals with p53 and p21 in HCT116 colon cancer cell lines. Briefly: Western blot of p53 and p21 in isogenic HCT116 cell lines (FIG. 2A). The format is cell-based, Human. As to conditions: isogenic HCT116: wild-type, USP7 null. As to the method: In 24-well plates, 0.10-0.15×10^6 (adherent) or 0.5×10^6 (suspension) cells were treated with 15 μM or 2.5 μM compounds, respectively, for 24 h in low serum prior to lysis for Western Blot analysis.
In general terms: In western blotting, separated proteins are transferred to a membrane and probed.

For a further experiment, the target named is T4, USP5 (Homo sapiens, UniProt P45974).
T4 sequence (P45974 1-858): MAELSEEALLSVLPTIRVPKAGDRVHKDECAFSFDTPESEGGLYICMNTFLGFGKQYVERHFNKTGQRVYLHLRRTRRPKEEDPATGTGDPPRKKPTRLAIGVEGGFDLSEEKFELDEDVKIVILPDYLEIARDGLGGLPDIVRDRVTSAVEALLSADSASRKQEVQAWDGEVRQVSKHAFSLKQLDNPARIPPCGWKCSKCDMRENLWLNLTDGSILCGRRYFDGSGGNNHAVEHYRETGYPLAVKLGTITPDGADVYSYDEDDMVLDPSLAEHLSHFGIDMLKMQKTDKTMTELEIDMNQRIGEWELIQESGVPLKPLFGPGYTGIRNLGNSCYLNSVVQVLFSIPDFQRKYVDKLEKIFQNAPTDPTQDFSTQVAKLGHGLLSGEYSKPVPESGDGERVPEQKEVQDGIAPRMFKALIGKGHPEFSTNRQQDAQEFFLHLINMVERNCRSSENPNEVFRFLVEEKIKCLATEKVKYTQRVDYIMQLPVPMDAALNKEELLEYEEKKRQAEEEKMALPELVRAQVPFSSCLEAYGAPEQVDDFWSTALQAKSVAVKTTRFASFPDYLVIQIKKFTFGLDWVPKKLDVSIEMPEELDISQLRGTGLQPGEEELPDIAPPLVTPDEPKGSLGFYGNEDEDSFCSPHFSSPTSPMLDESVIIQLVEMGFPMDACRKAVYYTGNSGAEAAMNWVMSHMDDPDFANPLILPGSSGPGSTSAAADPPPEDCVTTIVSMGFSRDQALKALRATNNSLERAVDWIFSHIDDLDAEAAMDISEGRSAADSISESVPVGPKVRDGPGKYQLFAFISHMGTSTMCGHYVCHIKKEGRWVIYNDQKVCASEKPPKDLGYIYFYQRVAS
Briefly: Ub-Rho110 DUB assay, Table 2, USP5.

Experiment [3] addresses T1, USP7, full-length, native C-Terminus. The experiment is described as follows: Biochemical USP7 assay with Ubiquitin-Rho110 substrate (USP7_Ub-Rho110 Fluor). As to conditions: no pre-incubation; 1 hour reaction at room temperature; read-out: USP7 Ub-Rho110 Fluor (IC50). On the procedure:
as §1, §2

SMILES strings stand for the structures.

As usually defined, the IC50 is the concentration that gives 50% inhibition.

T1 sequence (Q93009 whole entry): as the sequence (Q93009 whole entry) above
Sequence of USP7 catalytic domain (Q93009 214-521 limits assumed): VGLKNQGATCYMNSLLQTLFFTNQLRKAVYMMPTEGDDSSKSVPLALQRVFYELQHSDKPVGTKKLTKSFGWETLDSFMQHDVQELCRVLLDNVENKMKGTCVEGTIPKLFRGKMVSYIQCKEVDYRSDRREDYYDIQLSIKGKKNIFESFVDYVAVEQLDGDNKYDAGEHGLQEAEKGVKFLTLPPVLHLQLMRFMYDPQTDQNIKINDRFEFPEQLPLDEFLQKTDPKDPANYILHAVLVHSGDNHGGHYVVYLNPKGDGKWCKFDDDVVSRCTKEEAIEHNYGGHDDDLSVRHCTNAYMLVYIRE

For the molecule `CCc1c(-c2ccc(C(N)=O)cc2)cnc(N)c1-c1ccc(O)cc1` [Compound 45, 4-[6-amino-4-ethyl-5-(4-hydroxyphenyl)-3-pyridyl]benzamide], the 50% inhibitory concentration (IC50) in experiment [1] was 2.6 µM; on USP7 catalytic domain it was 1.3 µM; on USP47, above 200 µM; on USP7 it was 2.9 µM; at USP5, above 200 µM. Further, on USP7, the “selectivity of antagonism of USP7 catalytic activity over the DUBs evaluated” value is “selective antagonists of USP7 catalytic activity”. Also, the “stabilization of p53 and p21 (western blot)” value (“stabilization of p53 and p21” for short) in experiment [2] is given as “not”.

As to `CCc1c(-c2ccc(O)cc2)cnc(N)c1-c1ccc(OC)cc1F` [Compound 10, 4-[6-amino-4-ethyl-5-(2-fluoro-4-methoxy-phenyl)-3-pyridyl]phenol], the IC50 in experiment [1] came out at 13 µM; in experiment [3], 7.5 µM.

As to `CCc1c(-c2ccc(O)cc2)cnc(N)c1-c1ccc(O)cc1` [Compound 2, 4-[6-amino-4-ethyl-5-(4-hydroxyphenyl)-3-pyridyl]phenol], the IC50 in experiment [1] was determined as 4.6 µM; in experiment [3] it was 3 µM.

On to `CCc1c(-c2ccc(C(=O)NC)cc2)cnc(N)c1-c1ccc(O)cc1` [Compound 81, 4-[6-amino-4-ethyl-5-(4-hydroxyphenyl)-3-pyridyl]-N-methyl-benzamide], for which the IC50 is 3.3 µM in experiment [1], 0.53 µM at USP7 catalytic domain, above 200 µM on USP47 and 1.4 µM on USP7.

Regarding `CCc1c(-c2ccc(O)cc2)cnc(N)c1-c1ccc(O)cc1F` [Compound 11, 4-[2-amino-4-ethyl-5-(4-hydroxyphenyl)-3-pyridyl]-3-fluoro-phenol], in experiment [3], the IC50 was above 20 µM.

Consider `COc1c(-c2ccc(O)cc2)cnc(N)c1-c1ccc(O)cc1` [Compound 4, 4-[6-amino-5-(4-hydroxyphenyl)-4-methoxy-3-pyridyl]phenol], for which the IC50 in experiment [3] is 29.1 µM.

Take `CCc1c(-c2ccc(O)cc2)cnc(N)c1-c1ccc(COC)cc1` [Compound 25, 4-[6-amino-4-ethyl-5-[4-(methoxymethyl)phenyl]-3-pyridyl]phenol]: the IC50 on USP7 catalytic domain is above 63.3 µM; at USP47 it was above 200 µM; against USP7, above 63.3 µM; against USP5, above 200 µM. The “selectivity of antagonism of USP7 catalytic activity over the DUBs evaluated” value on USP7 is “ineffective in antagonizing the activity of any DUB evaluated”. Also, in experiment [2], the “stabilization of p53 and p21” value was “stabilize p53 and p21”.

In the case of `Nc1ncc(-c2ccc(O)cc2)c(C(F)(F)F)c1-c1ccc(O)cc1` [Compound 5, 4-[6-amino-5-(4-hydroxyphenyl)-4-(trifluoromethyl)-3-pyridyl]phenol], the IC50 is 7.1 µM in experiment [1] and 6 µM in experiment [3].

As for `CCc1c(-c2cccc(NC(C)=O)c2)cnc(N)c1-c1ccc(O)cc1` [Compound 8, N-[3-[6-amino-4-ethyl-5-(4-hydroxyphenyl)-3-pyridyl]phenyl]acetamide], the IC50 in experiment [3] is 45 µM.

With `CCc1c(-c2ccc(C(=O)NC)nc2)cnc(N)c1-c1ccc(O)cc1` [Compound 92, 5-[6-amino-4-ethyl-5-(4-hydroxyphenyl)-3-pyridyl]-N-methyl-pyridine-2-carboxamide], the IC50 in experiment [1] is 1.5 µM. Further, in experiment [2], the “stabilization of p53 and p21” value is “stabilize p53 and p21”.

The record behind these values is patent US9573899B2, “USP7 inhibitor compounds and methods of use” (Genentech, Inc., priority 2015, dated 2017).
